# Measured values reported in patent US9265774B2, “Methods, compounds and pharmaceutical compositions for treating anxiety and mood disorders” (New York University, priority 2011, dated 2016).
# Where two headings read alike, the source gives them in different places.
# Tests used:
# [1] = tested on: immobility in tail suspension test; test: Tail suspension test (TST); format: in vivo, mice; details: intracerebral administration
# Experimental: (§1) In the RFS study, mice were subjected to 4 daily 15 min swims as described above and were injected i.p. with either vehicle or dp6FNE (3 mg/kg) 15 min prior to the 5th swim. In the TST study, animals were injected similarly before a 6 min test. […] The animals were anesthetized and perfused for immuno-histochemistry 70 min after the start of the swim or tail suspension. Brains were processed as described previously for double-label immunofluorescent Fos/tyrosine hydroxylase staining of all sections through the LC and for single-label Fos staining through the full PVH (Stone et al., Brain Res (2009) 1291: 21-31).
# To determine if dp6FNE was active in a more traditional test of antidepressant activity, it was given as above 15 min prior to a tail suspension test.
# (§2) The first test involves an acute stress-induced model of depression (Steru, et al., Psychopharmacology 1985; 85: 367-370) whereas the second, a more prolonged, chronic depression that is more akin to chronic human depression (Stone, et al., Pharmacol Biochem Behav 2008; 91: 190-195).
# [2] = tested on: locomotor behavior in an open field; test: Open field locomotor behavior after ivt. 6FNE or i.p. dp6FNE versus amphetamine; format: in vivo, mice
# Experimental: 6FNE and dp6FNe were tested for their effects on motor activity by measuring locomotor behavior in an open field after either ivt. (6FNE) or i.p. injection (dp6fNE) in mice. These mice were compared to animals that were either non handled or received either a vehicle ivt injection or an i.p. injection of the stimulant, amphetamine (5 mg/kg). The results are shown in FIG. 6 and in (Stone, Lin Y, Sarfraz Y, and Quartermain D, 2011). […] Furthermore, the increase in activity after 6FNE was minor in comparison with the bona fide stimulant, amphetamine which produced a 10 fold increase. The small increase over the vehicle group therefore appears to be the result of a reduction of the stress caused by the handling and restraint for the ivt. injection which is in agreement with the reduced activation of brain stress circuits discussed above. This interpretation was supported by an examination of the time in the center or risky area of the field spent by the various groups. […] A slight reduction in motor behavior at the low doses (0.1-0.3 mg/kg) were, however, observed.
# [3] = tested on: repeated open-space swim model; test: Repeated open-space (forced) swim test; format: in vivo, mice; details: for antidepressant activity in the repeated open-space forced swim test: intracerebral administration
# Source text: as §2
# [4] = prazosin: at 0.2 mg/kg in mice; cited from earlier work
# [5] = tested on: model of chronic depression in mice (repeated forced swim); details: for acute antidepressant (anti-immobility) effect in the RFS: single acute i.p. administration minutes before the swim, low doses, prazosin 0.2 mg/kg present
# Source text: We administered the pro-drugs shortly before one or more tests of antidepressant activity including reversal of immobility during tail suspension and forced swimming and attenuation of anhedonia produced by endotoxin administration. […] (Stone et al., Eur. J. Pharmacol. (2001) 420: 97-102) Because dp6FNE like all other antidepressants has an initial anorexic effect and acutely reduces the consumption of sweet solutions, in the test for anhedonia it was necessary to employ a non-nutritive hedonic behavior, FUST (sniffing of estrous female urine). […] (Stone et al., Neuropsychopharmacology (2011) 14: 319-331); Sun et al., J. Neurosci. Methods (2003) 126:35-40; Sun et al., Behavioral Pharmacology (2008) 19: 334-338).
# Mice were swum for 15 min/d on 4 d and tested for the response to acute i.p dp6FNE (1 or 3 mg/kg) alone or in combination with 8-OHDPAT (0.05 mg/kg) and corticosterone (3 mg/kg) on the 5th and final swim (15 min after drug administration). […] Comparison groups receiving currently available antidepressants were treated acutely i.p. or chronically (14 d osmotic pumps) with either desmethylimipramine (DMI) (10 mg/kg), fluoxetine (5 mg/kg), escitalopram (5 mg/kg), bupropion (10 mg/kg) or ketamine (10 mg/kg).
# Although corticosteroids are well known to produce depression (Gourley et al., Biol Psychiatry (2008) 64: 884-890), this occurs at high doses only. […] Mice were swum for 3 d and given either vehicle (0.8% ethanol) or corticosterone (12.5 μg/ml) in their drinking water.
# As described in Example 4a, the cocktail was tested in a mouse model of chronic depression (RFS).
# [6] = tested on: home cage exploration in handling-stressed mice; test: Home cage activity after handling and injection stress; format: in vivo
# Experimental: FIG. 15 depicts the effect of acute i.p. dp6FNE (1 mg/kg) or cirazoline (0.1 mg/kg), (N=1), on home cage activity in terms of rearing and ambulation, Veh (N=12).
# 6FNE has a more rapid and/or greater antidepressant effect than either of these agonists because 6FNE is the only known selective α-agonist that has full efficacy at all brain α-adrenoceptors and 6FNE works within minutes (Stone, et al. 2011) whereas cirazoline was given to mice over several months prior to testing in one model (forced swim test) in the above experiment by Doze et al, 2009. […] (Stone, E A, Lin Y, Quartermain, D, Unpublished results)
# It is known that peripheral administration of α1-agonists without phentolamine impairs exploratory behavior in the open field (Yang, et al., J Pharmacol exp Ther 1990; 255: 1064-1070).
# PVH Fos expression = test: Fos expression in the PVH, RFS model, corticosterone in the drinking water; format: in vivo, mice; details: versus veh
# Source text: (§3) GR agonists such as corticosterone and dexamethasone are well known to produce selective inhibition of the neural activity of parvocellular PVH neurons at low doses (Keller-Wood et al., Endo Rev (1982) 5: 1-24; Dallman et al., Ann N Y Acad Sci 91987) 512: 402-414). This effect was shown in a previous experiment on the effects of corticosterone in the drinking water on Fos expression in the PVH or piriform cortex of mice subjected to the RFS model (Stone et al., eur J Pharmacol (2007) In Press). The animals were swum a total of 3 times and on the night prior to the 3rd swim given corticosterone at 12.5, 25 or 50 μg/ml in the drinking water. These concentrations produced nighttime intakes of 4.6, 10.7 and 14.2 mg/kg. The mice were given the 3rd and final swim the following morning, 0800-1000 h, and were anesthetized and perfused 70 min after the start of the swim for immunohistochemical assay of Fos in the PVH and in the piriform cortex, a control region that supports positively motivated behavior (Carr et al., Neuropsychopharmacology (2010) 35: 752-763; Stone et al., Neurosci Biobehav Revs (2008a) 32: 508-524).
# [7] = tested on: Fos expression in the piriform cortex; test: Fos expression in the piriform cortex, RFS model, corticosterone in the drinking water; format: in vivo, mice; details: versus veh
# Source text: as §3
# [8] = tested on: open field behavior (locomotion and center square occupancy); test: Open field motor activity and anxiety after capture and injection; format: in vivo, mice; details: corticosterone 12.5 μg/ml in drinking water (4.6 mg/kg)
# Experimental: To determine if the agonists had motor stimulating or sedative actions, mice were allowed to explore an open field undisturbed for 60 min and were then captured and injected i.p. with either vehicle or the full “cocktail” of the 3 […] (dp6FNE 1 mg/kg; 8-OHDPAT, 0.05 mg/kg; corticosterone, 3 mg/kg, praz, 0.2 mg/kg) before being replaced in the field for a final 15 min. The vehicle injection (praz present) reduced subsequent locomotion and time spent in the center of the field by −76.8±11.0% and −78.5±12.4%, respectively, from preceding levels, indicating an anxiogenic effect of the injection procedure. The injection of the “cocktail”, however, rescued both locomotion and center time to −12.9±1.9% and −25.3±6.9%, respectively, indicating a strong anti-anxiety effect with no motor stimulation or sedation (FIG. 9).
# In addition to its antidepressant property, the cocktail is also effective in producing a significant antianxiety effect without sedation in these animals. The applicants have tested for this effect using an open field in which animals are placed and permitted to explore freely after which they are captured, restrained briefly for an ip. injection of saline and returned to the field for a final 15 min. […]
# [9] = oral; cited from earlier work
# Fos expression in the LC = Fos expression in the LC during the RFS model; format: in vivo, mice; details: prazosin 0.2 mg/kg; vehicle animals compared with previous results without prazosin
# Experimental: as §1, with “21-31). […] In the tail suspended mice the analogous reductions were 53.5±7.2% (LC) and 36.7±3.1 (PVH). […] These findings thus indicate that a dose of […] dp6FNE that has preferential inhibitory effects on the LC during depression exists.” for “21-31).”
# [10] = corticosterone 25 μg/ml in drinking water, nighttime intake 10.7 mg/kg
# [11] = corticosterone 50 μg/ml in drinking water, nighttime intake 14.2 mg/kg
# [12] = corticosterone 12.5 μg/ml in drinking water, nighttime intake 4.6 mg/kg, mice swum for 3 d, versus vehicle
compound,measurement,setting,value
"NCC(O)c1cc(O)c(O)cc1F (stereo not drawn) [6FNE, 6-fluoronorepinephrine]",antidepressant activity in the tail suspension test,[1],equally effective
same,time in the center of the field,[2]; 6FNE ivt. or dp6FNE i.p.,restored this behavior back to the level of the non-handled controls
same,effect on motor activity in the open field,"[2]; mouse, in vivo, ip",no change in activity compared to the non-handled animals
same,antidepressant activity in the repeated open-space forced swim test,[3],effective
same,passage of the blood brain barrier,[4],does not pass the blood brain barrier
"CNCCCN1c2ccccc2CCc2ccccc21 [DMI, desmethylimipramine]",acute effect in the repeated open-space swim test,"[3]; acute i.p., dp6FNE at 1, 3 and 10 mg/kg given along with phentolamine 5 mg/kg i.p.",complete lack of effect
CC(N)Cc1ccccc1 (stereo not drawn) [amphetamine],increase in activity in the open field,[2]; amphetamine 5 mg/kg i.p.,10 fold
CCC1(c2cnc[nH]2)Cc2ccccc2C1 [atipamezole],effect of receptor blockade on the antidepressant actions of dp6FNE in the RFS,"[5]; mouse, in vivo",significantly reversed the antidepressant actions of pro-drug in the RFS
c1ccc(C2CC2)c(OCC2=NCCN2)c1 [cirazoline],effect by itself on movement and motor behavior in the home cage,"[6]; cirazoline i.p., unpublished results",pronounced inhibition of movement and motor behavior
same,behavioral inhibition in the home cage following handling and injection stress,"[6]; i.p., dp6FNE (1 mg/kg) in the presence of phentolamine, cirazoline (0.1 mg/kg)",not effective in reducing behavioral inhibition
C[C@]12C[C@H](O)[C@H]3[C@@H](CCC4=CC(=O)CC[C@@]43C)[C@@H]1CC[C@@H]2C(=O)CO [corticosterone],reduction of PVH Fos expression,"PVH Fos expression; corticosterone 12.5 μg/ml in drinking water, nighttime intake 4.6 mg/kg, 70 min after start of 3rd swim",−51.7±17%
same,reduction of PVH Fos expression,PVH Fos expression; [10],−66.8±8.5%
same,reduction of PVH Fos expression,PVH Fos expression; [11],−63.7±11.0%
same,increase of Fos expression in the piriform cortex,"[7]; corticosterone 12.5 μg/ml in drinking water, nighttime intake 4.6 mg/kg",+203.3±78.6%
same,increase of Fos expression in the piriform cortex,[7]; [10],+175.3±53.9%
same,increase of Fos expression in the piriform cortex,[7]; [11],+193.3±67.4%
same,increase of distance swum,[5]; [12],+107.7±15.8%
same,reduction in immobility,[5]; [12],−36.6±5.7%
same,acute antidepressant (anti-immobility) effect in the RFS,[5],rapid and effective preclinical antidepressant actions
same,acute antidepressant (anti-immobility) effect in the RFS,[5]; listed as corticosteroid,immediate and effective antidepressant action
same,open field locomotion,[8],No effect
C[C@@H]1C[C@H]2[C@@H]3CCC4=CC(=O)C=C[C@]4(C)[C@@]3(F)[C@@H](O)C[C@]2(C)[C@@]1(O)C(=O)COP(=O)(O)O [dexamethasone sodium phosphate],bioavailability,[9],approximately 0.5
Cc1cccc([C@H](C)c2cnc[nH]2)c1C [dexmedetomidine],antidepressant activity in the tail suspension test,[1],equally effective
same,antidepressant activity in the repeated open-space forced swim test,[3],only 6FNE was effective
CNC1(c2ccccc2Cl)CCCCC1=O (stereo not drawn) [ketamine],acute antidepressant (anti-immobility) effect in the RFS,[5],"None of the currently available antidepressants that were tested, including ketamine, appeared acutely effective"
COc1cc2nc(N3CCN(C(=O)c4ccco4)CC3)nc(N)c2cc1OC [prazosin],effect of the antagonist on LC or PVH Fos,Fos expression in the LC,no effect
same,effect of receptor blockade on the antidepressant actions of dp6FNE in the RFS,[5]; high dose systemic prazosin or α2-antagonist atipamezole given with dp6FNE,significantly reversed the antidepressant actions of pro-drug in the RFS
